Measurements: patent US6953577B2, “Human methionine aminopeptidase type 3” (Pharmacia Corporation, priority 1999, dated 2005)

Tests used:
MetAP-2 [1] = target: T1, MetAP-2 (Homo sapiens, UniProt P50579); experiment: Methionine aminopeptidase activity assay (methionine release from tripeptide, coupled L-amino acid oxidase/Amplex Red)
Experimental: (§1) Hydrogen peroxide, produced by the L-amino acid oxidase reaction, was measured by monitoring the formation of resorufin from Amplex Red in a reaction catalyzed by of horseradish peroxidase. […] The reaction was performed in a 96-well plate format at ambient temperature using the following assay buffer: 20 mM HEPES-Na pH 7.5, 100 mM NaCl, 0.1 mM CoCl2 containing 100 μM Amplex Red, 0.15 U/ml L-amino acid oxidase, 0.5 U/ml horseradish peroxidase.
(§2) The ability of fumagillin to inhibit each of the recombinant human MetAPs was determined by adding 0.6 nM-500 μM fumagillin at the start of the reaction. The IC50 values were determined under conditions in which enzyme concentration and reaction time were linear.
Target sequence in this assay (P50579 whole entry): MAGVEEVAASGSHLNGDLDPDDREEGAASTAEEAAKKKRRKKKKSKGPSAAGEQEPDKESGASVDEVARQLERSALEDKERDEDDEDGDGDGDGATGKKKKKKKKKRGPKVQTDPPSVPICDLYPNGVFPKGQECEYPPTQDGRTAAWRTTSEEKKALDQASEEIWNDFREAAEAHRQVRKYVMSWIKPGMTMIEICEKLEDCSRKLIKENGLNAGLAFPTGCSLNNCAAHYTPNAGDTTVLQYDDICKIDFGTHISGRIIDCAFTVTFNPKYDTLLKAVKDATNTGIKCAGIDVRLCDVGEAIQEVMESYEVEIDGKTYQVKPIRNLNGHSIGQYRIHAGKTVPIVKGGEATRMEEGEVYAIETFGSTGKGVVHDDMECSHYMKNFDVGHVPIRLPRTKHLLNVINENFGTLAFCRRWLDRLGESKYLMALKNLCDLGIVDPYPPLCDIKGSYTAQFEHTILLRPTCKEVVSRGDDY

[2] = target: recombinant human MetAP-1 (Homo sapiens, UniProt P53582); experiment: as above
Experimental: as §1, §2

[3] = target: T2, recombinant human MetAP-3 (Homo sapiens, UniProt Q6UB28); experiment: as above; assay type: biochemical; conditions: for Cleaved / Vmax: tripeptide as substrate of recombinant human MetAP-3
T2 construct: The coding region of hMetAP-3 was also cloned into the EcoRI/HindIII sites of the pET43a vector and expressed as a fusion protein; NusA (N, cleaved yes); 6xHis (N, cleaved yes); made in house; host or cells: E. coli Tuner (DE3)plysS, pET43a
Experimental: as §1, §2

[4] = tested on: endothelial cell proliferation; conditions: cited from earlier work
MetAP-2 [5] = target: T1, MetAP-2; conditions: cited from earlier work
Target sequence in this assay (P50579 whole entry, species assumed): as the sequence (P50579 whole entry) above

type-1 enzyme (MetAP-1) = type-1 enzyme (MetAP-1) (Homo sapiens, UniProt P53582); conditions: cited from earlier work
[6] = in vivo, cited from earlier work

T2 sequence (Q6UB28 20-335): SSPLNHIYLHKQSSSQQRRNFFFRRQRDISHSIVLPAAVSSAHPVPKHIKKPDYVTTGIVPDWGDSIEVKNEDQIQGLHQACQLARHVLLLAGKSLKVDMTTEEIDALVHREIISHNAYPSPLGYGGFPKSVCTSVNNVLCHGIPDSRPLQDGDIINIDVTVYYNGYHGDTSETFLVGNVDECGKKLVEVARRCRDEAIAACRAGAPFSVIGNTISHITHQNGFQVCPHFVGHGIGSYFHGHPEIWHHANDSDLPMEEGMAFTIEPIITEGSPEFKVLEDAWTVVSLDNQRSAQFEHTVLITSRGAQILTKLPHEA

Compound	Binding and inhibition of MetAP-2 (in words) (MetAP-2 [5])	Inhibition of type-1 enzyme (in words) (type-1 enzyme (MetAP-1))	Cleaved [3]	Vmax [3] [Abs × 1000/min]	other results
CO[C@@H]1[C@H](OC(=O)/C=C/C=C/C=C/C=C/C(=O)O)CC[C@]2(CO2)[C@H]1[C@@]1(C)O[C@@H]1CC=C(C)C [Fumagillin, fumagillin]	irreversibly bind and potently inhibit	but not the type-1 enzyme	–	–	IC50 (MetAP-2 [1]): 0.005 µM; IC50 [2]: 33 µM; Inhibition of MetAP-3 by fumagillin (in words) [3]: not inhibited by fumagillin; IC50 ([3]; read-out: Fumagillin IC50): > 500 µM; Inhibition of endothelial cell proliferation (in words) [4]: potent inhibitor of endothelial cell proliferation
CO[C@@H]1[C@H](OC(=O)NC(=O)CCl)CC[C@]2(CO2)[C@H]1[C@@]1(C)O[C@@H]1CC=C(C)C [TNP-470]	irreversibly bind and potently inhibit	but not the type-1 enzyme	–	–	Potency relative to fumagillin [4]: 50 fold; Oral availability (in words) ([6]; po): lack of oral availability; Toxicity (in words) [6]: dose-limiting neurotoxicity
MGG: synthesized tripeptide evaluated as substrate for MetAP-3	–	–	cleaved and Yes	134	Activity with MGG relative to MAS as substrate [3]: twice as high
CO[C@@H]1C(=O)CC[C@]2(CO2)[C@@]1(O)[C@@]1(C)O[C@@H]1CC=C(C)C [ovalicin]	–	but not the type-1 enzyme	–	–	–
MEG: synthesized tripeptide evaluated as substrate for MetAP-3	–	–	cannot cleave and No	1.1	–
GGG: synthesized tripeptide evaluated as substrate for MetAP-3	–	–	No	0.7	–
